US10980727B2, “Mixtures containing (E)-3-benzo[1,3]dioxol-5-yl-N,N-diphenyl-2-propenamide” (SYMRISE AG, priority 2016, dated 2021)

Experiments:
Format in all cases: physicochemical
[1] = Solubility of BDDPA in different solvents at room temperature
Procedure: The solubility of (E)-3-benzo[1,3]dioxol-5-yl-N,N-diphenyl-2-propenamide (BDDPA) in different solvents was tested.
(§1) The amount of solvent added to the amount of (E)-3-benzo[1,3]dioxol-5-yl-N,N-diphenyl-2-propenamide is added up to 100 wt.-% in each mixture (1 to 18). Thus the composition of mixture 1 is 99 wt.-% ethanol, 1 wt.-% BDDPA.

[2] = Solubility of BDDPA in binary and ternary solvent systems at 23° C. and 90° C.
Procedure: The solubility of (E)-3-benzo[1,3]dioxol-5-yl-N,N-diphenyl-2-propenamide (BDDPA) in different solvent combinations was tested.
The amount of solvents 1 to 3 add up to 100 wt.-% with the amount of (E)-3-benzo[1,3]dioxol-5-yl-N,N-diphenyl-2-propenamide. Thus the composition of mixture 19 is 5 wt.-% BDDPA, 47.5 wt.-% triacetin and 47.5 wt.-% peppermint oil.

[3] = Stability of the mixtures on storage at 5° C.; settings: mixtures of table 2
Procedure: Several of the mixtures of example 1 were stored at night at 5 C to observe the stability.
as §1

BDDPA dissolved in the respective solvents at room temperature ([1]; 23° C., solvents of table 1): completely dissolved
Temperature at which BDDPA dissolves in the solvents of table 1 ([1]; where necessary by means of ultrasonification): ≤ 65 °C
BDDPA dissolved in binary and ternary solvent combinations at room temperature ([2]; 23° C.): completely dissolved
BDDPA dissolved in binary and ternary solvent combinations at high temperature ([2]; 90° C.): remains stably dissolved
Recrystallization on storage over night below room temperature [3]: no recrystallization occurs
SMILES: O=C(/C=C/c1ccc2c(c1)OCO2)N(c1ccccc1)c1ccccc1 [BDDPA, (E)-3-benzo[1,3]dioxol-5-yl-N,N-diphenyl-2-propenamide]
